Assay results published in patent US20240000872A1, “NOVEL BACTERIOPHAGE THAT LYSES ACINETOBACTER GENUS BACTERIA HAVING RESISTANCE TO ANTIBIOTICS” (priority 2020, published 2024).

System: Acinetobacter baumannii strains
Assay: Antibiotic susceptibility test (CLSI disk diffusion test method, read per CLSI 2016); on antibiotic susceptibility S/I/R: key: ‘S’ means susceptible; ‘I’ means intermediate; ‘R’ means resistant; on susceptibility category (S/I/R): key: ‘S’ means susceptible; ‘I’ means intermediate; ‘R’ means resistant
Type: cell-based
Parameters: antibiotic susceptibility test value / susceptibility test value (number given before S/I/R) / antibiotic susceptibility value: unit not given here

gentamicin
antibiotic susceptibility value (host strain YMC16/01/R353): 16 | susceptibility category (S/I/R) (host strain YMC16/01/R353): R | susceptibility test value (number given before S/I/R) (host strain YMC16/01/R353): 16 | antibiotic susceptibility S/I/R (host strain YMC16/01/R380): R | antibiotic susceptibility value (host strain YMC16/01/R380): 16 | susceptibility category (S/I/R) (host strain YMC16/01/R380): R | susceptibility test value (number given before S/I/R) (host strain YMC16/01/R380): 16 | antibiotic susceptibility S/I/R (host strain YMC16/01/R397): R | antibiotic susceptibility value (host strain YMC16/01/R397): 16 | susceptibility category (S/I/R) (host strain YMC16/01/R397): R | susceptibility test value (number given before S/I/R) (host strain YMC16/01/R397): 16 | antibiotic susceptibility S/I/R (host strain YMC16/01/R405): R | antibiotic susceptibility value (host strain YMC16/01/R405): 16 | susceptibility category (S/I/R) (host strain YMC16/01/R405): R | susceptibility test value (number given before S/I/R) (host strain YMC16/01/R405): 16 | antibiotic susceptibility S/I/R (host strain YMC16/03/R4461): R | antibiotic susceptibility value (host strain YMC16/03/R4461): 16 | susceptibility category (S/I/R) (host strain YMC16/03/R4461): R | susceptibility test value (number given before S/I/R) (host strain YMC16/03/R4461): 16 | antibiotic susceptibility S/I/R (host strain YMC16/05/R2210): R | antibiotic susceptibility value (host strain YMC16/05/R2210): 16 | susceptibility category (S/I/R) (host strain YMC16/05/R2210): R | susceptibility test value (number given before S/I/R) (host strain YMC16/05/R2210): 16 | antibiotic susceptibility S/I/R (host strain YMC16/07/R2512): R | antibiotic susceptibility value (host strain YMC16/07/R2512): 16 | susceptibility category (S/I/R) (host strain YMC16/07/R2512): R | susceptibility test value (number given before S/I/R) (host strain YMC16/07/R2512): 16 | antibiotic susceptibility S/I/R (host strain YMC16/09/R2471): R | antibiotic susceptibility value (host strain YMC16/09/R2471): 16 | susceptibility category (S/I/R) (host strain YMC16/09/R2471): R | susceptibility test value (number given before S/I/R) (host strain YMC16/09/R2471): 16 | antibiotic susceptibility S/I/R (host strain YMC16/10/R2537): R | antibiotic susceptibility value (host strain YMC16/10/R2537): 16 | susceptibility category (S/I/R) (host strain YMC16/10/R2537): R | susceptibility test value (number given before S/I/R) (host strain YMC16/10/R2537): 16 | antibiotic susceptibility S/I/R (host strain YMC16/12/B11422): R | antibiotic susceptibility value (host strain YMC16/12/B11422): 16 | susceptibility category (S/I/R) (host strain YMC16/12/B11422): R | susceptibility test value (number given before S/I/R) (host strain YMC16/12/B11422): 16 | antibiotic susceptibility S/I/R (host strain YMC16/12/B11449): R | antibiotic susceptibility value (host strain YMC16/12/B11449): 16 | susceptibility category (S/I/R) (host strain YMC16/12/B11449): R | susceptibility test value (number given before S/I/R) (host strain YMC16/12/B11449): 16 | antibiotic susceptibility S/I/R (host strain YMC16/12/B13325): R | antibiotic susceptibility value (host strain YMC16/12/B13325): 16 | susceptibility category (S/I/R) (host strain YMC16/12/B13325): R | susceptibility test value (number given before S/I/R) (host strain YMC16/12/B13325): 16 | antibiotic susceptibility S/I/R (host strain YMC16/12/P503): R | antibiotic susceptibility value (host strain YMC16/12/P503): 16 | susceptibility category (S/I/R) (host strain YMC16/12/P503): R | susceptibility test value (number given before S/I/R) (host strain YMC16/12/P503): 16 | antibiotic susceptibility S/I/R (host strain YMC16/12/R4637): R | antibiotic susceptibility value (host strain YMC16/12/R4637): 16 | susceptibility category (S/I/R) (host strain YMC16/12/R4637): R | susceptibility test value (number given before S/I/R) (host strain YMC16/12/R4637): 16 | antibiotic susceptibility S/I/R (host strain YMC17/01/B8053): R | antibiotic susceptibility value (host strain YMC17/01/B8053): 16 | susceptibility category (S/I/R) (host strain YMC17/01/B8053): R | susceptibility test value (number given before S/I/R) (host strain YMC17/01/B8053): 16 | antibiotic susceptibility S/I/R (host strain YMC17/01/B10087): R | antibiotic susceptibility value (host strain YMC17/01/B10087): 16 | susceptibility category (S/I/R) (host strain YMC17/01/B10087): R | susceptibility test value (number given before S/I/R) (host strain YMC17/01/B10087): 16 | antibiotic susceptibility S/I/R (host strain YMC17/01/B12075): S | antibiotic susceptibility value (host strain YMC17/01/B12075): 1 | susceptibility category (S/I/R) (host strain YMC17/01/B12075): S | susceptibility test value (number given before S/I/R) (host strain YMC17/01/B12075): 1 | antibiotic susceptibility S/I/R (host strain YMC17/01/B13454): R | antibiotic susceptibility value (host strain YMC17/01/B13454): 16 | susceptibility category (S/I/R) (host strain YMC17/01/B13454): R | susceptibility test value (number given before S/I/R) (host strain YMC17/01/B13454): 16 | antibiotic susceptibility S/I/R (host strain YMC17/01/P518): R | antibiotic susceptibility value (host strain YMC17/01/P518): 16 | susceptibility category (S/I/R) (host strain YMC17/01/P518): R | susceptibility test value (number given before S/I/R) (host strain YMC17/01/P518): 16 | antibiotic susceptibility S/I/R (host strain YMC17/01/R2812): R | antibiotic susceptibility value (host strain YMC17/01/R2812): 16 | susceptibility category (S/I/R) (host strain YMC17/01/R2812): R | susceptibility test value (number given before S/I/R) (host strain YMC17/01/R2812): 16 | antibiotic susceptibility S/I/R (host strain YMC17/02/B14): R | antibiotic susceptibility value (host strain YMC17/02/B14): 16 | susceptibility category (S/I/R) (host strain YMC17/02/B14): R | susceptibility test value (number given before S/I/R) (host strain YMC17/02/B14): 16 | antibiotic susceptibility S/I/R (host strain YMC17/02/B87): S | antibiotic susceptibility value (host strain YMC17/02/B87): 2 | susceptibility category (S/I/R) (host strain YMC17/02/B87): S | susceptibility test value (number given before S/I/R) (host strain YMC17/02/B87): 2 | antibiotic susceptibility S/I/R (host strain YMC17/02/B721): R | antibiotic susceptibility value (host strain YMC17/02/B721): 16 | susceptibility category (S/I/R) (host strain YMC17/02/B721): R | susceptibility test value (number given before S/I/R) (host strain YMC17/02/B721): 16 | antibiotic susceptibility S/I/R (host strain YMC17/02/B4039): R | antibiotic susceptibility value (host strain YMC17/02/B4039): 16 | susceptibility category (S/I/R) (host strain YMC17/02/B4039): R | susceptibility test value (number given before S/I/R) (host strain YMC17/02/B4039): 16 | antibiotic susceptibility S/I/R (host strain YMC17/02/B4520): R | antibiotic susceptibility value (host strain YMC17/02/B4520): 16 | susceptibility category (S/I/R) (host strain YMC17/02/B4520): R | susceptibility test value (number given before S/I/R) (host strain YMC17/02/B4520): 16 | antibiotic susceptibility S/I/R (host strain YMC17/02/B4864): S | antibiotic susceptibility value (host strain YMC17/02/B4864): 1 | susceptibility category (S/I/R) (host strain YMC17/02/B4864): S | susceptibility test value (number given before S/I/R) (host strain YMC17/02/B4864): 1 | antibiotic susceptibility S/I/R (host strain YMC17/02/B8414): R | antibiotic susceptibility value (host strain YMC17/02/B8414): 16 | susceptibility category (S/I/R) (host strain YMC17/02/B8414): R | susceptibility test value (number given before S/I/R) (host strain YMC17/02/B8414): 16 | antibiotic susceptibility S/I/R (host strain YMC17/02/P523): S | antibiotic susceptibility value (host strain YMC17/02/P523): 4 | susceptibility category (S/I/R) (host strain YMC17/02/P523): S | susceptibility test value (number given before S/I/R) (host strain YMC17/02/P523): 4 | antibiotic susceptibility S/I/R (host strain YMC17/02/R541): R | antibiotic susceptibility value (host strain YMC17/02/R541): 16 | susceptibility category (S/I/R) (host strain YMC17/02/R541): R | susceptibility test value (number given before S/I/R) (host strain YMC17/02/R541): 16 | antibiotic susceptibility S/I/R (host strain YMC17/02/R2392): R | antibiotic susceptibility value (host strain YMC17/02/R2392): 16 | susceptibility category (S/I/R) (host strain YMC17/02/R2392): R | susceptibility test value (number given before S/I/R) (host strain YMC17/02/R2392): 16 | antibiotic susceptibility S/I/R (host strain YMC17/03/B4730): R | antibiotic susceptibility value (host strain YMC17/03/B4730): 16 | susceptibility category (S/I/R) (host strain YMC17/03/B4730): R | susceptibility test value (number given before S/I/R) (host strain YMC17/03/B4730): 16 | antibiotic susceptibility S/I/R (host strain YMC17/03/B5000): R | antibiotic susceptibility value (host strain YMC17/03/B5000): 16 | susceptibility category (S/I/R) (host strain YMC17/03/B5000): R | susceptibility test value (number given before S/I/R) (host strain YMC17/03/B5000): 16 | antibiotic susceptibility S/I/R (host strain YMC17/03/P971): R | antibiotic susceptibility value (host strain YMC17/03/P971): 16 | susceptibility category (S/I/R) (host strain YMC17/03/P971): R | susceptibility test value (number given before S/I/R) (host strain YMC17/03/P971): 16 | antibiotic susceptibility S/I/R (host strain YMC17/03/R348): R | antibiotic susceptibility value (host strain YMC17/03/R348): 16 | susceptibility category (S/I/R) (host strain YMC17/03/R348): R | susceptibility test value (number given before S/I/R) (host strain YMC17/03/R348): 16 | antibiotic susceptibility S/I/R (host strain YMC17/03/R585): R | antibiotic susceptibility value (host strain YMC17/03/R585): 16 | susceptibility category (S/I/R) (host strain YMC17/03/R585): R | susceptibility test value (number given before S/I/R) (host strain YMC17/03/R585): 16 | antibiotic susceptibility S/I/R (host strain YMC17/03/R1888): R | antibiotic susceptibility value (host strain YMC17/03/R1888): 16 | susceptibility category (S/I/R) (host strain YMC17/03/R1888): R | susceptibility test value (number given before S/I/R) (host strain YMC17/03/R1888): 16 | antibiotic susceptibility S/I/R (host strain YMC17/03/R3279): R | antibiotic susceptibility value (host strain YMC17/03/R3279): 16 | susceptibility category (S/I/R) (host strain YMC17/03/R3279): R | susceptibility test value (number given before S/I/R) (host strain YMC17/03/R3279): 16 | antibiotic susceptibility S/I/R (host strain YMC17/03/R4077): R | antibiotic susceptibility value (host strain YMC17/03/R4077): 16 | susceptibility category (S/I/R) (host strain YMC17/03/R4077): R | susceptibility test value (number given before S/I/R) (host strain YMC17/03/R4077): 16 | antibiotic susceptibility S/I/R (host strain YMC17/03/R4607): R | antibiotic susceptibility value (host strain YMC17/03/R4607): 16 | susceptibility category (S/I/R) (host strain YMC17/03/R4607): R | susceptibility test value (number given before S/I/R) (host strain YMC17/03/R4607): 16 | antibiotic susceptibility S/I/R (host strain YMC17/04/R488): R | antibiotic susceptibility value (host strain YMC17/04/R488): 16 | susceptibility category (S/I/R) (host strain YMC17/04/R488): R | susceptibility test value (number given before S/I/R) (host strain YMC17/04/R488): 16 | antibiotic susceptibility S/I/R (host strain YMC17/04/R640): R | antibiotic susceptibility value (host strain YMC17/04/R640): 16 | susceptibility category (S/I/R) (host strain YMC17/04/R640): R | susceptibility test value (number given before S/I/R) (host strain YMC17/04/R640): 16 | antibiotic susceptibility S/I/R (host strain YMC/17/05/R1095): R | antibiotic susceptibility value (host strain YMC/17/05/R1095): 16 | susceptibility category (S/I/R) (host strain YMC/17/05/R1095): R | susceptibility test value (number given before S/I/R) (host strain YMC/17/05/R1095): 16
